“And” between values parts separate entries of the source, which are not always exact repeats. Identical values can stand only once. Inconclusive results and toxic doses are left out. The calls were made as follows: active = survival T/C of 150% or more; inactive = T/C below 125% in these data.
Test system: BDF1 mice, B16 melanoma ip, median survival T/C
Assay: NCI In Vivo Anticancer Drug Screen. Data for tumor model B16 Melanoma (intraperitoneal) in B6D2F1 (BDF1) mice
Settings: endpoint: median survival time, higher = longer survival
How it was run: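 The ratio T/C compares compound-treated mice with vehicle-treated controls, using survival or tumor size as the endpoint in a transplantable tumor model.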

[1] = dose: 6.25 mg/kg/injection, schedule: Q01DX009 (ip), vehicle: saline
[2] = dose: 8.0 mg/kg/injection, schedule: Q01DX009 (ip), vehicle: Klucel (hydroxypropylcellulose) (HPC)
[3] = dose: 12.5 mg/kg/injection, schedule: Q01DX009 (ip), vehicle: saline
[4] = dose: 16.0 mg/kg/injection, schedule: Q01DX009 (ip), vehicle: Klucel (hydroxypropylcellulose) (HPC)
[5] = dose: 25.0 mg/kg/injection, schedule: Q01DX009 (ip), vehicle: saline
[6] = dose: 50.0 mg/kg/injection, schedule: Q01DX009 (ip), vehicle: saline with Tween-80
[7] = dose: 100.0 mg/kg/injection, schedule: Q01DX009 (ip), vehicle: saline
[8] = dose: 100.0 mg/kg/injection, schedule: Q04DX003 (ip), vehicle: saline
[9] = dose: 200.0 mg/kg/injection, schedule: Q04DX003 (ip), vehicle: saline
[10] = dose: 12.5 mg/kg/injection, schedule: Q01DX009 (ip), vehicle: Klucel (hydroxypropylcellulose) (HPC)
[11] = dose: 25.0 mg/kg/injection, schedule: Q01DX009 (ip), vehicle: Klucel (hydroxypropylcellulose) (HPC)
[12] = dose: 50.0 mg/kg/injection, schedule: Q01DX009 (ip), vehicle: Klucel (hydroxypropylcellulose) (HPC)
[13] = dose: 100.0 mg/kg/injection, schedule: Q01DX009 (ip), vehicle: Klucel (hydroxypropylcellulose) (HPC)
[14] = dose: 200.0 mg/kg/injection, schedule: Q01DX009 (ip), vehicle: Klucel (hydroxypropylcellulose) (HPC)
[15] = dose: 50.0 mg/kg/injection, schedule: Q01DX009 (ip), vehicle: saline

Measured: T/C

COc1cc2cc3c4cc(OC)c(OC)cc4cc[n+]3c(C)c2cc1OC (tested in a mixture with another compound)
inactive: [1] 106 % of control | dose: 6.25 mg/kg/injection, schedule: Q04DX003 (ip), vehicle: saline with Tween-80 88 % of control | dose: 6.25 mg/kg/injection, schedule: Q04DX003 (ip), vehicle: saline 107 % of control | [2] 90 % of control and 91 % of control | dose: 8.0 mg/kg/injection, schedule: Q01DX009 (ip), vehicle: clinical formulation 100 % of control and 109 % of control | dose: 8.0 mg/kg/injection, schedule: Q01DX009 (ip), vehicle: other 99 % of control and 107 % of control | dose: 8.0 mg/kg/injection, schedule: Q01DX009 (ip), vehicle: water 87 % of control | [3] 93 % of control | dose: 12.5 mg/kg/injection, schedule: Q01DX009 (ip), vehicle: water 95 % of control | dose: 12.5 mg/kg/injection, schedule: Q04DX003 (ip), vehicle: saline with Tween-80 100 % of control | dose: 12.5 mg/kg/injection, schedule: Q04DX003 (ip), vehicle: saline 105 % of control | [4] 91 % of control and 92 % of control and 96 % of control | dose: 16.0 mg/kg/injection, schedule: Q01DX009 (ip), vehicle: clinical formulation 94 % of control and 106 % of control | dose: 16.0 mg/kg/injection, schedule: Q01DX009 (ip), vehicle: other 97 % of control and 111 % of control and 123 % of control | dose: 16.0 mg/kg/injection, schedule: Q01DX009 (ip), vehicle: water 96 % of control and 106 % of control | [5] 87 % of control | dose: 25.0 mg/kg/injection, schedule: Q01DX009 (ip), vehicle: water 109 % of control | dose: 25.0 mg/kg/injection, schedule: Q04DX003 (ip), vehicle: saline with Tween-80 102 % of control | dose: 25.0 mg/kg/injection, schedule: Q04DX003 (ip), vehicle: saline 102 % of control | dose: 32.0 mg/kg/injection, schedule: Q01DX009 (ip), vehicle: Klucel (hydroxypropylcellulose) (HPC) 90 % of control and 93 % of control and 95 % of control | dose: 32.0 mg/kg/injection, schedule: Q01DX009 (ip), vehicle: clinical formulation 96 % of control and 105 % of control | dose: 32.0 mg/kg/injection, schedule: Q01DX009 (ip), vehicle: other 103 % of control and 105 % of control (2×) | dose: 32.0 mg/kg/injection, schedule: Q01DX009 (ip), vehicle: water 94 % of control and 111 % of control | dose: 33.0 mg/kg/injection, schedule: Q01DX009 (ip), vehicle: saline with Tween-80 105 % of control | [6] 110 % of control | dose: 50.0 mg/kg/injection, schedule: Q01DX009 (ip), vehicle: water 93 % of control | dose: 50.0 mg/kg/injection, schedule: Q04DX003 (ip), vehicle: saline with Tween-80 97 % of control | dose: 50.0 mg/kg/injection, schedule: Q04DX003 (ip), vehicle: saline 100 % of control | dose: 64.0 mg/kg/injection, schedule: Q01DX009 (ip), vehicle: Klucel (hydroxypropylcellulose) (HPC) 89 % of control and 91 % of control and 94 % of control | dose: 64.0 mg/kg/injection, schedule: Q01DX009 (ip), vehicle: clinical formulation 104 % of control | dose: 64.0 mg/kg/injection, schedule: Q01DX009 (ip), vehicle: other 100 % of control and 104 % of control | dose: 75.0 mg/kg/injection, schedule: Q01DX009 (ip), vehicle: saline with Tween-80 101 % of control | [7] 106 % of control | dose: 100.0 mg/kg/injection, schedule: Q01DX009 (ip), vehicle: water 91 % of control | [8] 94 % of control | dose: 128.0 mg/kg/injection, schedule: Q01DX009 (ip), vehicle: Klucel (hydroxypropylcellulose) (HPC) 91 % of control and 93 % of control | dose: 200.0 mg/kg/injection, schedule: Q04DX003 (ip), vehicle: saline with Tween-80 88 % of control | [9] 100 % of control

CN(C)CCN(Cc1ccccc1)c1ccccc1
inactive: dose: 25.0 mg/kg/injection, schedule: Q04DX003 (ip), vehicle: Klucel (hydroxypropylcellulose) (HPC) 95 % of control | dose: 50.0 mg/kg/injection, schedule: Q04DX003 (ip), vehicle: Klucel (hydroxypropylcellulose) (HPC) 89 % of control

Cc1cc([N+](=O)[O-])cc(C)c1OC(=O)c1ccc(N=C(N)N)cc1
inactive: [10] 98 % of control | [11] 97 % of control | [12] 90 % of control

C=CS(=O)(=O)c1ccccc1
inactive: dose: 12.5 mg/kg/injection, schedule: Q01DX009 (ip), vehicle: saline with Tween-80 96 % of control | dose: 25.0 mg/kg/injection, schedule: Q01DX009 (ip), vehicle: saline with Tween-80 94 % of control | [6] 98 % of control

CC(O)COc1ccc(OCc2ccccc2)cc1 (stereo not drawn)
inactive: [13] 106 % of control | [14] 109 % of control | dose: 400.0 mg/kg/injection, schedule: Q01DX009 (ip), vehicle: Klucel (hydroxypropylcellulose) (HPC) 100 % of control

O=[N+]([O-])c1cccc(P(=O)(c2cccc([N+](=O)[O-])c2)c2cccc([N+](=O)[O-])c2)c1
inactive: [7] 105 % of control | [8] 94 % of control | dose: 200.0 mg/kg/injection, schedule: Q01DX009 (ip), vehicle: saline 100 % of control | [9] 100 % of control | dose: 400.0 mg/kg/injection, schedule: Q01DX009 (ip), vehicle: saline 107 % of control | dose: 400.0 mg/kg/injection, schedule: Q04DX003 (ip), vehicle: saline 100 % of control

c1ccc2c(c1)C1=NCCN1c1ccccc1-2
inactive: dose: 12.0 mg/kg/injection, schedule: Q01DX009 (ip), vehicle: saline with Tween-80 92 % of control | dose: 18.0 mg/kg/injection, schedule: Q01DX009 (ip), vehicle: saline with Tween-80 94 % of control | dose: 26.0 mg/kg/injection, schedule: Q01DX009 (ip), vehicle: saline with Tween-80 102 % of control

CC(=O)OC1C(CO)OC2C1Oc1nc(=N)c(F)cn12 (stereo not drawn)
inactive: dose: 3.13 mg/kg/injection, schedule: Q01DX009 (ip), vehicle: saline 88 % of control | [1] 93 % of control | [3] 90 % of control | [5] 86 % of control | [15] 91 % of control

COC1=C2C[C@@H](C)C[C@@H](OC)[C@@H](O)[C@H](C)/C=C(\C)[C@@H](OC(N)=O)[C@H](OC)/C=C\C=C(/C)C(=O)NC(=CC1=O)C2=O
inactive: dose: 0.5 mg/kg/injection, schedule: Q01DX005 (ip), vehicle: other 110 % of control | dose: 0.5 mg/kg/injection, schedule: Q01DX005 (ip), vehicle: saline with Tween-80 112 % of control | dose: 0.5 mg/kg/injection, schedule: Q01DX005 (ip), vehicle: water 112 % of control and 118 % of control | dose: 0.5 mg/kg/injection, schedule: Q01DX009 (ip), vehicle: saline with Tween-80 110 % of control | dose: 1.0 mg/kg/injection, schedule: Q01DX005 (ip), vehicle: saline with Tween-80 118 % of control | dose: 1.0 mg/kg/injection, schedule: Q01DX005 (ip), vehicle: water 119 % of control | dose: 2.0 mg/kg/injection, schedule: Q01DX005 (ip), vehicle: saline with Tween-80 118 % of control

O=C(O)C(=O)O.[U]
inactive: dose: 4.0 mg/kg/injection, schedule: Q01DX009 (ip), vehicle: Klucel (hydroxypropylcellulose) (HPC) 88 % of control | [2] 93 % of control | [4] 87 % of control

O=C(O)CCC(=O)O
inactive: dose: 10.0 mg/kg/injection, schedule: Q01DX009 (ip), vehicle: water 101 % of control [middle of 4 runs] | dose: 20.0 mg/kg/injection, schedule: Q01DX009 (ip), vehicle: water 102 % of control [middle of 4 runs] | dose: 40.0 mg/kg/injection, schedule: Q01DX009 (ip), vehicle: water 101 % of control and 119 % of control and 98 % of control | dose: 80.0 mg/kg/injection, schedule: Q01DX009 (ip), vehicle: water 93 % of control and 100 % of control and 104 % of control | dose: 160.0 mg/kg/injection, schedule: Q01DX009 (ip), vehicle: water 88 % of control and 94 % of control and 114 % of control | dose: 320.0 mg/kg/injection, schedule: Q01DX009 (ip), vehicle: water 106 % of control

O=C(Cl)C1(Br)CC2c3ccccc3C1([N+](=O)[O-])c1ccccc12 (stereo not drawn)
inactive: [10] 100 % of control | [11] 97 % of control | [12] 97 % of control | [13] 91 % of control | [14] 88 % of control

CN(CO)c1nc(N(C)CO)nc(N(C)CO)n1
inactive: [1] 111 % of control | [3] 112 % of control and 118 % of control | [5] 110 % of control and 124 % of control | [15] 120 % of control

— PubChem BioAssay AID192 (DTP/NCI, 2004)
